Source: patent US20210388260A1, “USE OF A SUBSTITUTED OR UNSUBSTITUTED POLYCYCLIC AROMATIC HYDROCARBON COMPOUND FOR HIGH-RESOLUTION MICROSCOPY” (Max-Planck-Gesellschaft zur Förderung der Wissenschaften e.V, priority 2018, published 2021)
In brackets after ≈: the same amount, converted by molar mass.

Legend:
[1] = Toxicity evaluation (Example 9)
Description: (§1) 3,4,5-Tris(hexaethylene glycol) substituted 6,14-dimesityldibenzo[hi,st]ovalene was prepared analogous to example 4 and evaluated concerning its toxicity.

[2] = type: physicochemical
Description: as §1

[3] = Absorption and emission spectra, molar extinction coefficient, fluorescence quantum yield; type: physicochemical; details: for width of absorption and emission spectra: spectra of FIGS. 3a-d, 4a-d; for fluorescence quantum yield / maximum absorption wavelength / molar extinction coefficient ε: in toluene (10^−5 mol/L); for molar extinction coefficient ε: at maximum absorption wavelength
Description: The maximum absorption wavelength in toluene (10^−5 mol/L) was 611 nm (molar extinction coefficient ε=2.03×10^5 M^−1 cm^−1) with a high fluorescence quantum yield of 0.85.
The maximum absorption wavelength in toluene (10^−5 mol/L) was 609 nm (molar extinction coefficient c=2.83×10^5 M^−1 cm^−1) with a high fluorescence quantum yield of 0.85.
The maximum absorption wavelength in toluene (10^−5 mol/L) was 647 nm (molar extinction coefficient ε=61511 M^−1 cm^−1) with a fluorescence quantum yield of 0.67.
The maximum absorption wavelength in toluene (10^−5 mol/L) was 609 nm (molar extinction coefficient ε=3.85×10^5 M^−1 cm^−1) with a high fluorescence quantum yield of 0.89.

[4] = STED imaging, stability embedded in polystyrene and in air (Example 12); type: physicochemical; details: high STED beam power, 3D STED imaging of more than one hour
Description: Different measurements were performed with 6,14-dimesityldibenzo[hi,st]ovalene being embedded in a polystyrene matrix and with 6,14-dimesityldibenzo[hi,st]ovalene in air. A Leica SP8 microscopy was used for the microscopy with an excitation laser wavelength of 561 nm and depletion (STED) laser wavelength of 775 nm.
The prepared glass coverslips were taped to a slide and kept in dark at room temperature until use.
A 15-months old sample of 6,14-dimesityldibenzo[hi,st]ovalene embedded in polystyrene as well as a freshly prepared sample of 6,14-dimesityldibenzo[hi,st]ovalene embedded in polystyrene were analyzed by STED.
6,14-dimesityldibenzo[hi,st]ovalene powder was dispersed in toluene at room temperature to a concentration of 10^−5 mol/L and was then further diluted to the needed concentration of e.g. 10^−7 mol/L. A gridded glass coverslip (#1.5) purchased from Ibidi GmbH in Martinsried, Germany which have microscopic/nano-structures was cleaned by oxygen-plasma cleaner (250 W, 5 minutes). 8 μl 10^−7 mol/L solution were put on top of the micro/nano-structure sample. After a few minutes, when all of the toluene was volatilized completely, the prepared sample was put on the microscope for 3D STED imaging.
The STED was performed with the following microscopy settings of the Leica SP8 microscope: […]

Solubility in water = type: physicochemical; details: room temperature
Description: In accordance with the present invention, the solubility and particularly the solubility of the compound having the general formula (1) or the general formula (2) in water at 23° C. is measured as follows: 1 mg sample is weighed into an Erlenmeyer flask and is then mixed homogeneously with 4 ml of water with a spatula at 23° C. The remaining substance on the spatula is stripped off with a magnetic stirrer bar, which is then added to the Erlenmeyer flask. While stirring with a magnetic stirrer, water is added dropwise with a burette until the solution in the Erlenmeyer flask becomes clear at 23° C. After that, the solubility of compound in water is calculated by calculating the ratio of weighed compound divided by the volume of added water and then by recalculating this ratio to 1 l of water.

living cells [5] = test: Cytotoxicity test in living cells (Example 13, FIG. 8); type: cell-based; details: concentration of 1 μM
Description: (§2) More specifically, the cytotoxicity of DBOV-Mes-OTEG was tested in living cells. […] Moreover, the uptake of DBOV-Mes-OTEG into living cells was investigated by imaging 21 hours with low laser intensity at the spinning disk confocal microscopy (Visitron).

living cells [6] = test: Uptake into living cells, spinning disk confocal microscopy; type: cell-based
Description: as §2

fixed cells = test: Blinking-mode imaging of fixed cell samples in PBS without special imaging buffer; type: cell-based
Description: After the aforementioned live cell imaging, the samples were fixed and imaged in phosphate-buffered saline (PBS) without special imaging buffer.

Row | Compound | width of absorption and emission spectra [3] | fluorescence quantum yield [3] | maximum absorption wavelength [3] [nm] | molar extinction coefficient ε [3] [M⁻¹ cm⁻¹] | other results
1 | 3,4,5-Tris(hexaethylene glycol) substituted 6,14-dimesityldibenzo[hi,st]ovalene | – | – | – | – | concentration up to which the compound is non-toxic [1]: ≤ 5 µM; solubility in DMSO [2]: good solubility
2 | 6,14-diphenyldibenzo[hi,st]ovalene [Example 7] | narrow absorption spectrum as well as a narrow emission spectrum | – | – | – | –
3 | Cc1cc(C)c(-c2c3cccc4c5ccc6ccc7c(-c8c(C)cc(C)cc8C)c8cccc9c%10ccc%11ccc2c2c%11c%10c%10c(c89)c7c6c5c%10c2c34)c(C)c1 [DBOV-Mes, 6,14-dimesityldibenzo[hi,st]ovalene] | – | – | – | – | stability and brightness under STED beam [4]: very stable and still very bright
4 | CCCCCCCCCCCCc1c2cccc3c4ccc5ccc6c(CCCCCCCCCCCC)c7cccc8c9ccc%10ccc1c1c%10c9c9c(c78)c6c5c4c9c1c23 [Example 1, 6,14-didodecyldibenzo[hi,st]ovalene] | – | 0.85 | 611 | 203000 | melting point: > 400 °C
5 | Cc1cccc(C)c1-c1c2cccc3c4ccc5ccc6c(-c7c(C)cccc7C)c7cccc8c9ccc%10ccc1c1c%10c9c9c(c78)c6c5c4c9c1c23 [Example 2, 6,14-bis(dimethylphenyl)dibenzo[hi,st]ovalene] | narrow absorption spectrum as well as a narrow emission spectrum | 0.85 | 609 | 283000 | –
6 | COCCOCCOCCOCCOc1cc(-c2ccc3cc4cc5c(-c6c(C)cc(C)cc6C)cc6cc7c(-c8cc(OCCOCCOCCOCCOC)c(OCCOCCOCCOCCOC)c(OCCOCCOCCOCCOC)c8)ccc8cc9cc%10c(-c%11c(C)cc(C)cc%11C)cc%11cc2c3c2c%11c%10c3c9c(c87)c6c5c3c42)cc(OCCOCCOCCOCCOC)c1OCCOCCOCCOCCOC [Example 4, 3,11-bis(3,4,5-tris(2,5,8,11-tetraoxatridecan-13-yloxy)phenyl)-6,14-dimesityldibenzo[hi,st]ovalene] | – | – | – | – | solubility in water (Solubility in water): 0.1 g/L (≈ 47.7 µM); toxicity to cells (living cells [5]): does not show any significant toxicity; location of compound in living cells (living cells [6]; after 21 hours incubation): in the nucleus and nuclear membrane; location of compound in living cells (living cells [6]; at the beginning of the incubation): taken into the cytoplasm; decrease of blinking signals (fixed cells; continuous exposure, high laser intensity 10 kW/cm^2 for 90 min): no significant decrease; blinking signals at low laser intensity (fixed cells; low laser intensity of 240 W/cm^2): blinking signals could also be imaged
7 | CC(C)[Si](C#Cc1c2cccc3c4ccc5ccc6c(C#C[Si](C(C)C)(C(C)C)C(C)C)c7cccc8c9ccc%10ccc1c1c%10c9c9c(c78)c6c5c4c9c1c23)(C(C)C)C(C)C [Example 5, 6,14-di(triisopropylsilylethynyl) dibenzo[hi,st]ovalene] | narrow absorption spectrum as well as a narrow emission spectrum | 0.67 | 647 | 61511 | –
8 | CCCCCCCCCCCCOc1cc(-c2c3cccc4c5ccc6ccc7c(-c8cc(OCCCCCCCCCCCC)c(OCCCCCCCCCCCC)c(OCCCCCCCCCCCC)c8)c8cccc9c%10ccc%11ccc2c2c%11c%10c%10c(c89)c7c6c5c%10c2c34)cc(OCCCCCCCCCCCC)c1OCCCCCCCCCCCC [Example 6, 6,14-bis[3,4,5-tris(dodecoxyl)-phenyl]dibenzo[hi,st]ovalene] | – | 0.89 | 609 | 385000 | –
9 | CCCCCCn1c(=O)c2c3ccc4c(-c5c(C)cc(C)cc5C)c5ccc6cc7c8c(=O)n(CCCCCC)c(=O)c8c8ccc9c(-c%10c(C)cc(C)cc%10C)c%10ccc%11cc(c2c1=O)c1c3c4c2c5c6c3c7c8c9c4c%10c%11c1c2c43 [Example 8, N-hexyl fumaric acid imide group substituted 6,14-dimesityldibenzo[hi,st]ovalene] | narrow absorption spectrum as well as a narrow emission spectrum | – | – | – | –
